Drawing on patent US4159328A, “Tetrahydro-1,3,5-thiadiazin-4-one derivative” (Nihon Nohyaku Co., Ltd., priority 1977, dated 1979), this text covers mortality, LD50 and Mortality for 4 compounds.

Data set [1] concerns 5th-instar larvae of brown planthopper. In words: mortality in 7 days after spraying on 5th-instar larvae of brown planthopper. Format: in vivo. The settings on record: Nilaparvata lugens, 168 h; for mortality at 100 ppm: 5th-instar larvae, 7 days.
In data set [2] the test system is larvae of 28-spotted lady beetle (Epilachna vigintioctopunctana Fabricius). In words: Test Example 8: insecticidal activity against larvae of 28-spotted lady beetle. Format: in vivo. The settings on record: 120 h. In short, it runs like this:
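Tomato leaflets dipped 30 s in 100 ppm test composition, air-dried, and placed in Petri dishes with seven second-instar larvae at 25° C. Mortality scored five days after treatment, two replicates.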

For data set [3], the system named is larvae of house mosquito (Culex pipiens pallens Coquillett). Put plainly: Test Example 6: insecticidal activity to larvae of house mosquito. In kind it is in vivo. The settings on record: 120 h. In short, it runs like this:
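Twenty first-instar Culex pipiens pallens larvae placed with feed in test composition diluted in deionized water to 10 ppm. Kept at 25 °C, and mortality counted five days after treatment.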

Data set [4] has as its system two-spotted spider mite (Tetranychus urticae Koch). Put plainly: Test Example 3: activity to two-spotted spider mite. The settings on record: 120 h, 1,000 ppm, 5 days after treatment. Format: in vivo. The text has this: Activity to two-spotted spider mite (Tetranychus urticae Koch).
Testing method: Two-spotted spider mites were set free on the pot-planted soybean in a greenhouse. On the next day, a test composition of 1,000 ppm concentration was sprayed over the soybean by means of a spray gun. Two days or five days after the treatment, dead-and-survival was inspected to calculate the mortality.

Data set [5] deals with larvae of white-backed planthopper (Sogatella furcifera Horvath). Put plainly: Test Example 2: insecticidal activity against larvae of white-backed planthopper. Format: in vivo. The settings on record: 168 h. In short, it runs like this: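 Rice seedlings at 1.5-leaf stage were dipped 30 s in 400 ppm test composition, air-dried, and infested with five first-instar larvae. Tubes were held at 25°C, and mortality was scored at 7 days from triplicate tests.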

A short description of data set [6]: mammalian acute toxicity. The settings on record: mouse, in vivo, mice, male. Here is the method: For example, 2-t-butylimino-3-isopropyl-5-phenyltetrahydro-1,3,5-thiadiazin-4-one (compound No. 145) and 2-t-butylimino-3-isopropyl-5-p-tolyltetrahydro-1,3,5-thiadiazin-4-one (compound No. 318) have LD50 (mice, male) of 10,000 mg/kg or higher. Many other compounds of this invention have LD50 (mice, male) of 5,000 mg/kg or higher.

The subject of data set [7] is larvae of green rice leafhopper (Nephotettix cincticeps Uhler). In words: Test Example 5: activity against larvae of green rice leafhopper. The settings on record: 168 h. Format: in vivo. In short, it runs like this: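 Rice seedlings at 1.5 leaf age dipped 30 seconds in 400 ppm test composition, air-dried, then infested with five second-instar larvae. Kept at 25° C; mortality scored seven days after treatment, three replicates.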

Data set [8] has as its system larvae of brown planthopper (Nilaparvata lugens Stahl). Put plainly: Test Example 1: insecticidal activity against larvae of brown planthopper. The settings on record: 120 h, third-instar larvae, 25° C., 5 days after treatment. In kind it is in vivo. In short, it runs like this: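 Rice seedlings at 1.5-leaf stage were dipped for 30 s in a 400 ppm test composition, air-dried, and infested with third-instar N. lugens larvae. After holding at 25 °C, mortality was scored 5 or 7 days post-treatment from three replicates.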

Data set [9] relates to cirrus red mite (Panonychus citri McGregor). In words: Test Example 4: activity to citrus red mite (Rothamstead method). The settings on record: two days after treatment, 25° C.; 2880 min. In kind it is in vivo. Further details: concentration or dose not given beside the values. Here is the method: Activity to cirrus red mite (Panonychus citri McGregor).
Testing method: The test was performed by Rothamstead method. A test composition was sprayed by means of a spray gun over grapefruit leaves infested with citrus red mites. After air-drying the grapefruit was left standing in a constant temperature cabinet at 25° C. Two days after the treatment, the number of survived mites was counted to calculate the mortality.

Data set [10] has as its system larvae of bug. (Togo hemipterus Scott). Put plainly: Test Example 9: insecticidal activity against larvae of bug. In kind it is in vivo. The settings on record: 120 h. Here is the method: Insecticidal activity against larvae of bug. (Togo hemipterus Scott).
Test method: Into a glass tube (1.6 cm in internal diameter and 9 cm in length), was added 1 ml of a test composition in 10 ppm concentration just to moisten the absorbent cotton. Five rice seeds and five first-instar larvae were introduced into the glass tube and the tube end was covered with a piece of Japanese paper. The glass tube was kept in a constant temperature cabinet at 25° C. Five days after treatment, the dead-and-survival was inspected to calculate the mortality (3-replication test).

Data set [11] relates to adult rust-red-flour beetle (Tribolium castaneum Herbst). Put plainly: Test Example 7: insecticidal activity to adult rust-red-flour beetle. In kind it is in vivo. The settings on record: 24 h. The method, then:
Insecticidal activity to adult rust-red-flour beetle (Tribolium castaneum Herbst).
Testing method: Into a 9-cm Petri dish covered on the bottom with a piece of filter paper, was introduced 7 ml of a test composition of 400 ppm concentration. Ten adult rust-red flour beetles were released in the Petri dish and left standing in a constant temperature cabinet at 25° C. After 24 hours, the dead-and-survival was inspected to calculate the mortality.

Data set [12] relates to larvae of diamond-back moth (Plutilla xylostella Linn'e). Put plainly: Test Example 10: insecticidal activity against larvae of diamond-back moth. Format: in vivo. The settings on record: 400 ppm, first-instar larvae, three days; 4320 min. The text has this: Insecticidal activity against larvae of diamond-back moth (Plutilla xylostella Linn'e). Testing method: A test composition of 400 ppm concentration was sprayed over the pot-planted chinese cabbage in a greenhouse by means of a spray gun. After air-drying, the chinese cabbage was infested with 10 first-instar larvae of diamond-back moth and was left standing in the greenhouse. Three days after the treatment, the dead-and-survival was inspected to calculate the mortality (3-replication test).

Where two headings read alike, the source gives them in different places.

Regarding `CNC(=O)Oc1cccc2ccccc12` [NAC, 1-naphthyl N-methylcarbamate, reference compound], the mortality (as a rule, the percentage killed) at 200 ppm in data set [1] (read-out: mortality in 7 days after spraying) is 30%.
In the case of `Cc1ccc(N2CSC(=NC(C)(C)C)N(C(C)C)C2=O)cc1` [Compound 318, 2-t-Butylimino-3-isopropyl-5-(p-tolyl)-tetrahydro-1,3,5-thiadiazin-4-one], the mortality at 100 ppm in data set [2] and in data set [1] was 100% each time. Besides, the mortality at 10 ppm in data set [3] stood at 90%. Besides, in data set [4], the mortality at 1000 ppm turned out to be 100%. Moreover, the mortality at 400 ppm in data set [5] (400 ppm, first-instar larvae, 25° C., seven days after treatment, read-out: Mortality) worked out at 100%; in data set [7] (400 ppm, second-instar larvae, 25° C., seven days after treatment, read-out: Mortality), 100%; in data set [8], 100%. Also, the median lethal dose (LD50) – broadly, the dose expected to kill half of the subjects tested – in [6] was not below 10000 mg/kg.
In the case of `CC(C)N1C(=O)N(c2ccccc2)CSC1=NC(C)(C)C` [Compound 145, 2-t-Butylimino-3-isopropyl-5-phenyl-tetrahydro-1,3,5-thiadiazin-4-one], the mortality at 100 ppm in data set [2] and in [1] was 100% each time. Further, the mortality at 10 ppm in [3] and in data set [10] was 100% each time. The compound also yielded a Mortality in data set [9] of 100%. For the same compound, the mortality at 400 ppm in data set [5] and in [7] was 100% in each case. In addition, the median lethal dose (LD50) in data set [6] was not below 10000 mg/kg.
Consider `C=CCN1C(=O)N(c2cccc(Cl)c2)CSC1=NCc1ccccc1` [Compound 219], for which the mortality at 400 ppm in data set [11] and in [8] was 100% each time. Further, the Mortality in data set [9] came out at 100%; in [12], 80%. For the same compound, the mortality at 1000 ppm in data set [4] is 70%.
